These results are taken from patent US20260297042A1, “BIARYLAMIDE DERIVATIVES AND THEIR USE AS PKMYT1 INHIBITORS” (CANCER RESEARCH TECHNOLOGY LIMITED, priority 2023, published 2026).

For one test, the target named is T1, Human PKMYT1 (Homo sapiens, UniProt Q99640).
T1 construct: Human PKMYT1 75-362 was cloned as a TEV cleavable 6xHis fusion; 6xHis (TEV cleavable) (cleaved yes); made in house; host or cells: bacterial cells
T1 sequence (Q99640 75-362): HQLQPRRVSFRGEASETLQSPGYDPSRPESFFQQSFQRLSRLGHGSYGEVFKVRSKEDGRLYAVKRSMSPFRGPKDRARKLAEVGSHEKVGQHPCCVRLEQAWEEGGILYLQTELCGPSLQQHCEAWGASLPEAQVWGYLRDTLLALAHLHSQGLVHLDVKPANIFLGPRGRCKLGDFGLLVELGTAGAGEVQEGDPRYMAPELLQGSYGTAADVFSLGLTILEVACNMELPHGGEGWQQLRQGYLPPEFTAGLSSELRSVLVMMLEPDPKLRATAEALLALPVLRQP
The test is described as follows: PKMYT1 biochemical ADP-Glo enzymatic assay. Particulars: ADP-Glo; 15 nM PKMYT1 kinase domain, 500 µM ATP, 60 minutes at 26° C.; banded. In outline:
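Compounds were titrated over 10 points (3-fold steps), then 15 nM purified PKMYT1 kinase domain (aa 75-362) and 500 µM ATP were added in pH 7.5 HEPES buffer. After 60 min at 26 °C, remaining ATP was depleted and ADP converted to luminescence for IC50 fitting.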

In the next test the target is T2, WEE1 (Homo sapiens, UniProt P30291).
T2 construct: purchased Thermo Fisher PR7373A
T2 sequence (P30291 whole entry): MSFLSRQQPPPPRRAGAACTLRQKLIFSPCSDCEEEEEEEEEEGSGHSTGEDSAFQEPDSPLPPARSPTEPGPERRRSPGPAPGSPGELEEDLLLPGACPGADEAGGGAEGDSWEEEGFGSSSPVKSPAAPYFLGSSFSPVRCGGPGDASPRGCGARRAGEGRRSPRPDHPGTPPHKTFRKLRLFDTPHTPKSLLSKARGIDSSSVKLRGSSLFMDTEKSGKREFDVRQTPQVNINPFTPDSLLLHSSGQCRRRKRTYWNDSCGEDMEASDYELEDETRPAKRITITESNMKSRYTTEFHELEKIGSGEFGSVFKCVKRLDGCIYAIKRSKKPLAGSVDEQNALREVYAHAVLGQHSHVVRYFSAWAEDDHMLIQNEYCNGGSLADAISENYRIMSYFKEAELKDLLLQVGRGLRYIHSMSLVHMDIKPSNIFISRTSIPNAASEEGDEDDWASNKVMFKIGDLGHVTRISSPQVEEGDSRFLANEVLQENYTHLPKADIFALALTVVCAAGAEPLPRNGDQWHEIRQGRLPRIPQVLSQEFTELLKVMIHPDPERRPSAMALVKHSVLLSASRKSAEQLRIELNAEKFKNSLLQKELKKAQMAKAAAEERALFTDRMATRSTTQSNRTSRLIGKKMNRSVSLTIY
The test is described as follows: Selectivity versus WEE1 assay (ADP-Glo enzymatic assay). The test is classed as biochemical. Particulars: banded; for IC50: ADP-Glo, 15 nM WEE1, 60 minutes at 26° C.; for PKMYT1 vs. WEE1 selectivity: fold difference in selectivity for PKMYT1 over WEE1, ">N" = at least in this band but could be higher. The essentials:
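Compounds were pre-dispensed, enzyme (15 nM final) was added in pH 7.5 HEPES buffer, and ATP ([…]) then started a 60 min incubation at 26° C. Afterwards ADP-Glo reagents were added in turn and luminescence was measured to derive IC50 values.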

The structures appear in SMILES notation.

`Cc1ccc(O)c(C)c1NC(=O)c1cnc(Nc2ccn(CC(=O)N3CCN(C(=O)OC(C)(C)C)CC3)n2)s1` [BAA-140, tert-butyl 4-[2-[3-[5-[(3-hydroxy-2,6-dimethyl-phenyl)carbamoyl]thiazol-2-ylamino]pyrazol-1-yl]acetyl]piperazine-1-carboxylate]: on Human PKMYT1, the IC50 is under 0.05 µM. Also, at WEE1, the concentration for half-maximal inhibition (IC50) is over 11 µM and the “PKMYT1 vs. WEE1 selectivity” value is on record as “Y (1000-5000 fold)”.
For the molecule `CNC(=O)Cn1ccc(Nc2ncc(C(=O)Nc3c(C)ccc(O)c3C)s2)n1` [BAA-141, N-(3-hydroxy-2,6-dimethyl-phenyl)-2-[[1-[2-(methylamino)-2-oxo-ethyl]pyrazol-3-yl]amino]thiazole-5-carboxamide], the IC50 against Human PKMYT1 was under 0.05 µM. Further, on WEE1, the half-inhibitory concentration (IC50) was over 11 µM and the “PKMYT1 vs. WEE1 selectivity” value was “X (100-<1000 fold)”.
With `Cc1ccc(O)c(C)c1NC(=O)c1cnc(Nc2ccn(CC(=O)N3CCN(S(C)(=O)=O)CC3)n2)s1` [BAA-142], the IC50 on Human PKMYT1 was under 0.05 µM. Further, on WEE1, the 50% inhibitory concentration (IC50) was over 11 µM and the “PKMYT1 vs. WEE1 selectivity” value is given as “X (100-<1000 fold)”.
Take `Cc1ccc(O)c(C)c1NC(=O)c1cnc(Nc2ccn(CC(=O)N3C[C@@H]4C[C@H]3CN4C(=O)OC(C)(C)C)n2)s1` [BAA-143]: the IC50 on Human PKMYT1 was under 0.05 µM. Besides, on WEE1, the IC50 was over 11 µM and the “PKMYT1 vs. WEE1 selectivity” value is listed as “Y (1000-5000 fold)”.
Turning to `Cc1ccc(O)c(C)c1NC(=O)c1cnc(Nc2ccn(CC(=O)N3CC4(C3)CN(C(=O)OC(C)(C)C)C4)n2)s1` [BAA-144, tert-butyl 6-[2-[3-[[5-[(3-hydroxy-2,6-dimethyl-phenyl)carbamoyl]thiazol-2-yl]amino]pyrazol-1-yl]acetyl]-2,6-diazaspiro[3.3]heptane-2-carboxylate], the IC50 was under 0.05 µM on Human PKMYT1 and 1 to 11 µM on WEE1. At WEE1, the “PKMYT1 vs. WEE1 selectivity” value is given as “X (100-<1000 fold)”.
Taken in the same sequence, the figures for `CC(=O)N1CCN(C(=O)Cn2ccc(Nc3ncc(C(=O)Nc4c(C)ccc(O)c4C)s3)n2)CC1` [BAA-145] were under 0.05 µM, over 11 µM and “Y (1000-5000 fold)”.
In turn, `Cc1ccc(O)c(C)c1NC(=O)c1cnc(Nc2ccn(CC(=O)NCC(C)(C)O)n2)s1` [BAA-146] had a concentration for half-maximal inhibition (IC50) on Human PKMYT1 of under 0.05 µM. Also, at WEE1, the IC50 is over 11 µM and the “PKMYT1 vs. WEE1 selectivity” value was “Y (1000-5000 fold)”.
`Cc1ccc(O)c(C)c1NC(=O)c1cnc(Nc2ccn(CC(=O)NCCO)n2)s1` [BAA-147, N-(3-hydroxy-2,6-dimethyl-phenyl)-2-[[1-[2-(2-hydroxyethylamino)-2-oxo-ethyl]pyrazol-3-yl]amino]thiazole-5-carboxamide] had an IC50 on Human PKMYT1 of under 0.05 µM. In addition, at WEE1, the IC50 was over 11 µM and the “PKMYT1 vs. WEE1 selectivity” value is on record as “Y (1000-5000 fold)”.
On to `Cc1ccc(O)c(C)c1NC(=O)c1cnc(Nc2ccn(CC(=O)N3CCCCC3)n2)s1` [BAA-149, N-(3-hydroxy-2,6-dimethyl-phenyl)-2-[[1-[2-oxo-2-(1-piperidyl)ethyl]pyrazol-3-yl]amino]thiazole-5-carboxamide], for which the IC50 at Human PKMYT1 was under 0.05 µM. Moreover, at WEE1, the half-maximal inhibitory concentration (IC50) was over 11 µM and the “PKMYT1 vs. WEE1 selectivity” value is “Y (1000-5000 fold)”.
The matching figures for `Cc1ccc(O)c(C)c1NC(=O)c1cnc(Nc2ccn(CC(=O)N3CCNC(=O)C3)n2)s1` [BAA-150]: under 0.05 µM, over 11 µM and “X (100-<1000 fold)”.
Consider `Cc1ccc(O)c(C)c1NC(=O)c1cnc(Nc2ccn(CC(=O)NC3CCN(C)CC3)n2)s1` [BAA-151], for which the IC50 against Human PKMYT1 was in the range of 0.05 to 1 µM. Moreover, on WEE1, the IC50 is over 11 µM and the “PKMYT1 vs. WEE1 selectivity” value is “X (100-<1000 fold)”.
`Cc1ccc(O)c(C)c1NC(=O)c1cnc(Nc2ccn(CC(=O)N3CCN(CCO)CC3)n2)s1` [BAA-153]: the IC50 on Human PKMYT1 is under 0.05 µM; against WEE1 it was over 11 µM. For the same molecule, the “PKMYT1 vs. WEE1 selectivity” value at WEE1 is given as “Y (1000-5000 fold)”.
On to `Cc1ccc(O)c(C)c1NC(=O)c1cnc(Nc2ccn(CC(=O)N3CCN(C(=O)N(C)C)CC3)n2)s1` [BAA-154], for which the IC50 against Human PKMYT1 is under 0.05 µM. In addition, on WEE1, the IC50 is over 11 µM and the “PKMYT1 vs. WEE1 selectivity” value is reported as “Y (1000-5000 fold)”.
